Results from US9029092B2, “Solution phase homogeneous assays” (Beckman Coulter, Inc., priority 2009, dated 2015).
Read-outs that look alike come from different tables or passages of the source.

System: Rabbit anti cAMP
From the text: There are provided homogeneous immunoassays of an analyte utilizing a chemiluminescent-labeled capture antibody in combination with labeled analyte in a competitive immunoassay reaction. The example analyte cyclic-AMP (“cAMP”) is conjugated with HRP to provide a cAMP-HRP reagent, which competes for analyte cAMP at the capture antibody (“Capture Ab”) which is conjugated with AK5 to form a capture antibody-AK5 complex. […] Analyte (cAMP) which is not conjugated with HRP competes for the […], and upon addition of trigger solution the resulting capture antibody-AK5-cAMP complex provides no chemiluminescence (i.e., “No Light”). Accordingly, analyte cAMP competes for capture antibody-AK5 complex and thereby suppresses signal due to the capture antibody-AK1-cAMP-HRP complex.
Rabbit anti cAMP (IMMUNOTECH, Marseille) 0.1 mg (20.3 uL from 4.93 mg/mL stock) was added to 162 uL of 0.1 M sodium borate pH 8.25 buffer in 1.7 mL centrifuge tube. 17.6 ug of AK5 (17.6 ul from 1 mg/mL stock of DMF) was added. After quick vortex mixing tube was placed on a rotating shaker for 1 hour at room temperature. Reaction was quenched by adding 1.2 uL of L-lysine from 3 mg/mL stock. Reaction mixture was diluted (1:1) in 0.4% BSA and PBS and stored at 4 C. cAMP-HRP was prepared according to the literature. […] A 30 nM stock of cAMP was prepared in PBS and further diluted in PBS to make sample calibrators for the assay.
The competitive immunoassay protocol was as follows. AK5 labeled monoclonal Rabbit anti cAMP (0.275 ug/mL) (3 uL), HRP labeled cAMP (0.09375 ug/mL) (3 ul) and cAMP calibrators (4 ul) were added into a white polystyrene 384 low volume plate. Conjugate solutions were 0.2% in BSA. After incubation of 30 minutes at room temperature, 1 ul of 2-aminophenol (0.6875 mM) was added followed by a trigger solution (10 ul). The trigger solution contained 25 mM Tris pH 8, 8 mM p-hydroxycinnamic acid, 1 mM EDTA, 0.2% Tween-20 and 0.1 M ureaperoxide. Light intensity was measured (Spectromax) for one second immediately upon injection of trigger. Reactants were not exposed to light during incubation and were not shaken.

## Nc1ncnc2c1ncn2[C@@H]1O[C@@H]2COP(=O)(O)O[C@H]2[C@H]1O [cAMP, cyclic-AMP]
cAMP 0.412 nM
  Average (light intensity): 83377
  Signal Suppression: 9%
cAMP 3.7 nM
  Average (light intensity): 31156
  Signal Suppression: 66%
cAMP 33.3 nM
  Average (light intensity): 943
  Signal Suppression: 99%
cAMP 100 nM
  Average (light intensity): 315
  Signal Suppression: 100%
cAMP 1000 nM
  Average (light intensity): 173
  Signal Suppression: 100%
cAMP 10000 nM
  Average (light intensity): 167
  Signal Suppression: 100%
read-out: IC50 for cAMP, competition with cAMP-HRP at AK5-labeled antibody, 2-aminophenol as SSIA
  IC50: 2.6 nM
